Measurements published in PubChem BioAssay AID1963866 (Molecular Pharmacology Branch, DTP, NCI, 2024).
The source made the active and inactive calls. The calls were made as follows: active = viability on the fitted dose curve at most 10% of control; inactive = the rest.

Tested on: PDC KRAS tumor spheroids with HUVEC/MSC, viability
Assay: Anticancer human tumor 349418-098-R-PDC patient-derived lung adenocarcinoma cell line growth inhibition [KRAS2]
Conditions: for IC50: curve of first compound; for viability, T/C: stronger effect = lower value
Procedure, shortened: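 Combination screen of spheroid viability in tumor-cell co-cultures with endothelial (HUVEC) and mesenchymal stem cell stroma. Each agent was tested in half-log dilutions, topping at clinical Cmax or at 10 microM without a known Cmax.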

[1] = second compound 0.1 µM, first compound 0.0316 µM
[2] = second compound 0.1 µM, first compound 0.1 µM
[3] = second compound 0.1 µM, first compound 0.316 µM
[4] = second compound 0.1 µM, first compound 1 µM
[5] = second compound 0.1 µM, first compound 3.16 µM
[6] = second compound 0.1 µM, first compound 10 µM
[7] = second compound 0.316 µM, first compound 0.0316 µM
[8] = second compound 0.316 µM, first compound 0.1 µM
[9] = second compound 0.316 µM, first compound 0.316 µM
[10] = second compound 0.316 µM, first compound 1 µM
[11] = second compound 0.316 µM, first compound 3.16 µM
[12] = second compound 0.316 µM, first compound 10 µM
[13] = second compound 1 µM, first compound 0.0316 µM
[14] = second compound 1 µM, first compound 0.1 µM
[15] = second compound 1 µM, first compound 0.316 µM
[16] = second compound 1 µM, first compound 1 µM
[17] = second compound 1 µM, first compound 3.16 µM
[18] = second compound 1 µM, first compound 10 µM
[19] = second compound 3.16 µM, first compound 0.0316 µM
[20] = second compound 3.16 µM, first compound 0.1 µM
[21] = second compound 3.16 µM, first compound 0.316 µM
[22] = second compound 3.16 µM, first compound 1 µM
[23] = second compound 3.16 µM, first compound 3.16 µM
[24] = second compound 3.16 µM, first compound 10 µM
[25] = second compound 10 µM, first compound 0.0316 µM
[26] = second compound 10 µM, first compound 0.1 µM
[27] = second compound 10 µM, first compound 0.316 µM
[28] = second compound 10 µM, first compound 1 µM
[29] = second compound 10 µM, first compound 3.16 µM
[30] = second compound 10 µM, first compound 10 µM
[31] = second compound 0.1 µM, first compound 0.000316 µM
[32] = second compound 0.1 µM, first compound 0.001 µM
[33] = second compound 0.1 µM, first compound 0.00316 µM
[34] = second compound 0.1 µM, first compound 0.01 µM
[35] = second compound 0.316 µM, first compound 0.000316 µM
[36] = second compound 0.316 µM, first compound 0.001 µM
[37] = second compound 0.316 µM, first compound 0.00316 µM
[38] = second compound 0.316 µM, first compound 0.01 µM
[39] = second compound 1 µM, first compound 0.000316 µM
[40] = second compound 1 µM, first compound 0.001 µM
[41] = second compound 1 µM, first compound 0.00316 µM
[42] = second compound 1 µM, first compound 0.01 µM
[43] = second compound 3.16 µM, first compound 0.000316 µM
[44] = second compound 3.16 µM, first compound 0.001 µM
[45] = second compound 3.16 µM, first compound 0.00316 µM
[46] = second compound 3.16 µM, first compound 0.01 µM
[47] = second compound 10 µM, first compound 0.000316 µM
[48] = second compound 10 µM, first compound 0.001 µM
[49] = second compound 10 µM, first compound 0.00316 µM
[50] = second compound 10 µM, first compound 0.01 µM
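Also: spheroids exposed to compounds for seven days before readout.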

SMILES	IC50 (second compound 0.1 µM)	IC50 (second compound 0.316 µM)	IC50 (second compound 1 µM)	IC50 (second compound 3.16 µM)	IC50 (second compound 10 µM)	viability, T/C [1]	viability, T/C [2]	viability, T/C [3]	viability, T/C [4]	viability, T/C [5]	viability, T/C [6]	viability, T/C [7]	viability, T/C [8]	viability, T/C [9]	viability, T/C [13]	viability, T/C [14]	viability, T/C [19]	viability, T/C [20]	viability, T/C [25]	viability, T/C [26]	other results
CC(C)NCC(C(=O)N1CCN(c2ncnc3c2C(C)CC3O)CC1)c1ccc(Cl)cc1 (stereo not given) + COc1cc2nc(C)nc(NC(C)c3cc(N)cc(C(F)(F)F)c3)c2cc1OC1CCOC1	279 nM	270 nM	178 nM	146 nM	< 31.6 nM	98.1%	73%	49.4%	23.1%	10.2%	6.37%	85.4%	77%	44.8%	93%	66.4%	71.9%	58.3%	26.9%	20.7%	viability, T/C [10]: 18.9%; viability, T/C [11]: 7.59%; viability, T/C [12]: 6.32%; viability, T/C [15]: 31.4%; viability, T/C [16]: 22%; viability, T/C [17]: 6.85%; viability, T/C [18]: 3.87%; outcome [21]: inactive; viability, T/C [22]: 13.9%; viability, T/C [23]: 6.58%; viability, T/C [24]: 5.75%; viability, T/C [27]: 7.61%; viability, T/C [28]: 3.94%; viability, T/C [29]: 1.89%; viability, T/C [30]: 2.67%
CC(C)n1nc(-c2ccc3oc(N)nc3c2)c2c(N)ncnc21 + COc1cc2nc(C)nc(NC(C)c3cc(N)cc(C(F)(F)F)c3)c2cc1OC1CCOC1	1.14 nM	0.791 nM	0.969 nM	1.27 nM	< 0.316 nM	9.94%	7.92%	–	–	–	–	8.96%	8.23%	–	8.55%	7.48%	8.73%	7.6%	4.36%	5.51%	viability, T/C [31]: 118%; viability, T/C [32]: 54.2%; viability, T/C [33]: 16.5%; viability, T/C [34]: 10.9%; viability, T/C [35]: 106%; viability, T/C [36]: 35.6%; viability, T/C [37]: 15.3%; viability, T/C [38]: 8.46%; viability, T/C [39]: 102%; viability, T/C [40]: 48.5%; viability, T/C [41]: 16.2%; viability, T/C [42]: 9.11%; viability, T/C [43]: 99.7%; viability, T/C [44]: 58.4%; viability, T/C [45]: 18.1%; viability, T/C [46]: 8.93%; viability, T/C [47]: 34.2%; viability, T/C [48]: 11.4%; viability, T/C [49]: 4.75%; viability, T/C [50]: 5.13%
CC1(C)CCC(CN2CCN(c3ccc(C(=O)NS(=O)(=O)c4ccc(NCC5CCOCC5)c([N+](=O)[O-])c4)c(Oc4cnc5[nH]ccc5c4)c3)CC2)=C(c2ccc(Cl)cc2)C1 + COc1cc2nc(C)nc(NC(C)c3cc(N)cc(C(F)(F)F)c3)c2cc1OC1CCOC1	1770 nM	1860 nM	1760 nM	1560 nM	< 31.6 nM	104%	103%	105%	85.1%	14%	5.48%	104%	97.9%	95.3%	102%	94.2%	78.9%	93.9%	35.2%	32.9%	viability, T/C [10]: 90.6%; viability, T/C [11]: 15.3%; viability, T/C [12]: 4.54%; viability, T/C [15]: 95.7%; viability, T/C [16]: 86.1%; viability, T/C [17]: 12.8%; viability, T/C [18]: 3.87%; viability, T/C [21]: 86%; viability, T/C [22]: 75.1%; viability, T/C [23]: 10.2%; viability, T/C [24]: 5.85%; viability, T/C [27]: 32.3%; viability, T/C [28]: 21.9%; viability, T/C [29]: 4.35%; viability, T/C [30]: 2.8%
COc1cc(Nc2ncc3c(n2)-c2ccc(Cl)cc2C(c2c(F)cccc2OC)=NC3)ccc1C(=O)O + COc1cc2nc(C)nc(NC(C)c3cc(N)cc(C(F)(F)F)c3)c2cc1OC1CCOC1	47.4 nM	36 nM	< 31.6 nM	< 31.6 nM	< 31.6 nM	60%	30.7%	31.8%	34.2%	23.3%	23.8%	52.8%	27.4%	30.8%	48.5%	31.2%	45.8%	29.4%	16.7%	22%	viability, T/C [10]: 26.5%; viability, T/C [11]: 25.4%; viability, T/C [12]: 23.4%; viability, T/C [15]: 36.2%; viability, T/C [16]: 33%; viability, T/C [17]: 28.3%; viability, T/C [18]: 20.5%; viability, T/C [21]: 28%; viability, T/C [22]: 25.5%; viability, T/C [23]: 18.4%; viability, T/C [24]: 19.1%; viability, T/C [27]: 12.4%; viability, T/C [28]: 9.24%; viability, T/C [29]: 16.1%; viability, T/C [30]: 6%
COc1cc2nccc(Oc3ccc(NC(=O)C4(C(=O)Nc5ccc(F)cc5)CC4)cc3)c2cc1OC + COc1cc2nc(C)nc(NC(C)c3cc(N)cc(C(F)(F)F)c3)c2cc1OC1CCOC1	936 nM	732 nM	656 nM	611 nM	< 31.6 nM	111%	107%	81.8%	9.71%	21.9%	113%	102%	97.3%	71.2%	109%	97.7%	98.4%	85.6%	44.6%	11.7%	viability, T/C [10]: 8.51%; viability, T/C [11]: 15.3%; viability, T/C [12]: 103%; viability, T/C [15]: 65.4%; viability, T/C [16]: 8.96%; viability, T/C [17]: 12.7%; viability, T/C [18]: 102%; viability, T/C [21]: 72.6%; viability, T/C [22]: 6.65%; viability, T/C [23]: 2.1%; viability, T/C [24]: 90.6%; viability, T/C [27]: 7.86%; viability, T/C [28]: 0.78%; viability, T/C [29]: 0.14%; viability, T/C [30]: 61.9%
Cn1ncnc1[C@H]1c2n[nH]c(=O)c3cc(F)cc(c23)N[C@@H]1c1ccc(F)cc1 + COc1cc2nc(C)nc(NC(C)c3cc(N)cc(C(F)(F)F)c3)c2cc1OC1CCOC1	> 100 nM	> 100 nM	> 100 nM	> 100 nM	< 0.316 nM	91.6%	82.4%	–	–	–	–	88.3%	81.1%	–	83.4%	77.7%	74.1%	78.1%	31%	24.3%	viability, T/C [31]: 103%; viability, T/C [32]: 99.9%; viability, T/C [33]: 100%; viability, T/C [34]: 95.8%; viability, T/C [35]: 97%; viability, T/C [36]: 92.7%; viability, T/C [37]: 97.2%; viability, T/C [38]: 89.5%; viability, T/C [39]: 97.3%; viability, T/C [40]: 97%; viability, T/C [41]: 93.9%; viability, T/C [42]: 87.5%; viability, T/C [43]: 92.5%; viability, T/C [44]: 88.6%; viability, T/C [45]: 86.3%; viability, T/C [46]: 85.2%; viability, T/C [47]: 36.2%; viability, T/C [48]: 20.6%; viability, T/C [49]: 23%; viability, T/C [50]: 23.2%
